Article PMC8869358, “High-Throughput Chemical Screening and Structure-Based Models to Predict hERG Inhibition” (Biology, 2022)
Where two headings read alike, the source gives them in different places.

Legend:
hERG [1] = target: T1, hERG (Homo sapiens, UniProt Q12809); test: cell-based; conditions: (-LOG10(IC50), µM)
hERG [2] = target: T1, hERG; test: Tox21 qHTS FluxOR thallium flux assay in hERG-U2OS cells
Description: The hERG-U2OS cell line was purchased from Codex BioSolution, Inc. (Gaithersburg, MD, USA). All the cell culture reagents were obtained from Invitrogen (Life Technologies, Madison, WI, USA). The hERG-U2OS cells were cultured in DMEM with Glutamax containing 10% fetal bovine serum (FBS), 1% of Non-Essential AA (NEAA), 50 U/mL penicillin, 50 μg/mL streptomycin, and 1 µg/mL puromycin. The cells were maintained at 37 °C under a humidified atmosphere and 5% CO2.
A FluxORTM thallium flux assay was performed in hERG-U2OS cells with stable hERG expression, as previously described. In this assay, thallium ions are used as surrogates for K^+ ions to monitor the activity of the hERG K^+ channel. […] The hERG-U2OS cells suspended in culture medium were dispensed at 1000 cells/well/3μL into 1536-well, black wall/clear-bottom plates using a Multidrop Combi dispenser (Thermo Fisher, Waltham, MA, USA). After the assay plates were incubated at 37 °C overnight, 3 μL of Loading Buffer provided from FluxOR II Potassium Ion Channel Assay Kit (Life Technologies, Carlsbad, CA, USA) was added to each assay well. The assay plates were then incubated at room temperature in the dark for 1 h, followed by the addition of 23 nL of compound, dissolved in DMSO, DMSO only, or positive control, to the assay plate. Each compound was tested at 15 concentrations in three independent runs.
Multiple criteria were used to select each small molecule, including properties allowing for high-throughput screens (HTS) (molecular weight, volatility, solubility, logP), commercial availability, possible and definite environmental hazards, or exposure concerns, and cost. A diverse group of 88 compounds was selected to be used as an internal control and plated in duplicate on each library plate to perform reproducibility analysis as well as to determine positional plate effects. Each compound in the Tox21 10K compound library was subjected to analytical chemistry quality control (QC), which provides information on the purity and identity of each sample. […] The compounds were serially diluted in Dimethylsulfoxide (DMSO) to 15 concentrations in 1536-well plates, covering a concentration range of up to four orders of magnitude.
Many of these chemicals were sourced independently by NTP/EPA/NCATS from different vendors or the same vendor but different batches; these chemicals have been tested in replicates. Compound concentration-response data analysis was performed as previously described. […] The dataset was then corrected using the DMSO-only compound plates at the beginning and end of the compound plate stack by applying an in-house pattern correction algorithm. The half-maximum inhibition values (IC50) for each compound and maximum response (efficacy) values were obtained by fitting the concentration-response curves of each compound to a four-parameter Hill equation [24]. […] To identify chemicals with the potential to inhibit the hERG channel, we selected only antagonist chemicals with curve rank −5 to −9.

hERG [3] = target: T1, hERG; test: in vitro; conditions: (-LOG10(IC50), µM)
[4] = hERG-U2OS cells, thallium flux, qHTS, result in words

T1 sequence (Q12809 whole entry): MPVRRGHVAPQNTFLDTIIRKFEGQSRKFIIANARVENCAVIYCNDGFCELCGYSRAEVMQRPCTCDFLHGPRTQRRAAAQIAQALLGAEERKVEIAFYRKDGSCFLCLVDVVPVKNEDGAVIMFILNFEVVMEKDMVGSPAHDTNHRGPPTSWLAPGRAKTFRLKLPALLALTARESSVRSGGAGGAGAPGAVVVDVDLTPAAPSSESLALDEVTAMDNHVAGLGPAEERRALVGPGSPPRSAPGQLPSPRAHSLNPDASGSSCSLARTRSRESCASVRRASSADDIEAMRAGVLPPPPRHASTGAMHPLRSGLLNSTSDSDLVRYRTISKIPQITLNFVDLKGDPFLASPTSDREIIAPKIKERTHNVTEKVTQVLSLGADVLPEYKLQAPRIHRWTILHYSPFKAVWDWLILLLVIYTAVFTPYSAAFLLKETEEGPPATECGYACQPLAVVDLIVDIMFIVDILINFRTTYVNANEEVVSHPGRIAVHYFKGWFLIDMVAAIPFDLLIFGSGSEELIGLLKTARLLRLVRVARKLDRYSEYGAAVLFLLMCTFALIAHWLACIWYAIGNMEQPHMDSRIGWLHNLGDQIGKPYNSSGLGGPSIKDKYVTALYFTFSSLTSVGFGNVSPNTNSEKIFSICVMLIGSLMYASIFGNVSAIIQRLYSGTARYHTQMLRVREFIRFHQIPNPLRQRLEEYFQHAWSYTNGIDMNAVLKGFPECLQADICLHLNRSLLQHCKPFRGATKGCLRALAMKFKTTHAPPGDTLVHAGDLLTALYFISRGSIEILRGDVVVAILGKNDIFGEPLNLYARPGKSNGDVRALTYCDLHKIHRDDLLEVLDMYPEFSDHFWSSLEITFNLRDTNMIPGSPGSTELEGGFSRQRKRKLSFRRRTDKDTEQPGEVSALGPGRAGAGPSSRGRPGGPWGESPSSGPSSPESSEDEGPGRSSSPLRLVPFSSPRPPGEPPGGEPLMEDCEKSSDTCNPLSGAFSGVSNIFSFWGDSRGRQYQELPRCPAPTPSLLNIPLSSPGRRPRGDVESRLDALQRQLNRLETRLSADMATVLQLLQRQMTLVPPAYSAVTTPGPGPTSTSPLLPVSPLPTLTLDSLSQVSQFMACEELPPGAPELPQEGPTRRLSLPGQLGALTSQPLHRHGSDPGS

| SMILES | IC50 (hERG [1]) | activity outcome for hERG inhibition in the assay (hERG [2]; [4]) | further results |
| --- | --- | --- | --- |
| C=CCC1=C(C)C(OC(=O)C2C(C=C(C)C)C2(C)C)CC1=O (stereo not drawn) [allethrin] | 32.3 µM |  | activity outcome for hERG inhibition in the assay (hERG [2]): inhibitory activity |
| CCNc1cc2[o+]c3cc(NCC)c(C)cc3c(-c3ccccc3C(=O)OCC)c2cc1C [Rhodamine 6G] |  |  | IC50 (hERG [3]; herg fluxor ii thallium influx): 2.45 µM |
| O=S1OCC2C(CO1)C1(Cl)C(Cl)=C(Cl)C2(Cl)C1(Cl)Cl (stereo not drawn) [Endosulfan] | 32.1 µM |  | activity outcome for hERG inhibition in the assay (hERG [2]): inhibitory activity |
| C#CCC1=C(C)C(OC(=O)C2C(C=C(C)C)C2(C)C)CC1=O (stereo not drawn) [prallethrin] | 46.8 µM | inhibitory activity |  |
| Cc1nc2sccn2c(=O)c1CCN1CCC(=C(c2ccc(F)cc2)c2ccc(F)cc2)CC1 [Ritanserin] |  | most active | IC50 (hERG [2]; IC50, hERG-U2OS cells, thallium flux, qHTS, 15 concentrations, three runs): 180 nM |
| CCCCCCCCCCCC[N+](C)(C)Cc1ccccc1 [Benzyldodecyldimethylammonium bromide] |  |  | IC50 (hERG [3]; fluxor ii thallium influx herg): 1.25 µM |
| O=C(CCCN1CCC(O)(c2ccc(Br)cc2)CC1)c1ccc(F)cc1 [Bromperidol] | 0.249 µM | most active |  |
| Cl[C@H]1[C@H](Cl)[C@@H](Cl)[C@@H](Cl)[C@H](Cl)[C@H]1Cl [lindane] | 45 µM |  | activity outcome for hERG inhibition in the assay (hERG [2]): inhibitory activity |
| CC(CCc1ccccc1)NCC(O)c1ccc(O)c(C(N)=O)c1 (stereo not drawn) [Labetalol] | 13.3 µM |  | activity outcome for hERG inhibition in the assay (hERG [2]): active |
| CS(=O)(=O)CCNCc1ccc(-c2ccc3ncnc(Nc4ccc(OCc5cccc(F)c5)c(Cl)c4)c3c2)o1 [Lapatinib] |  | showing activity against hERG |  |
| CCCCCCCC[N+](CCCCCCCC)(CCCCCCCC)CCCCCCCC.[Br-] [tetra-N-octylammonium bromide] | 0.745 µM |  | activity outcome for hERG inhibition in the assay (hERG [2]): most active |
| CCCCCCCC[P+](CCCCCCCC)(CCCCCCCC)CCCCCCCC.[Br-] [tetraoctylphosphonium bromide] | 0.402 µM | most active |  |
| O=C(CCCN1CCC(O)(c2ccc(Cl)cc2)CC1)c1ccc(F)cc1 [Haloperidol] |  |  | activity outcome for hERG inhibition in the assay (hERG [2]): most active |
| CCCCCCCCCCCCCC[P+](CCCC)(CCCC)CCCC.[Cl-] [tributyltetradecylphosphonium chloride] | 0.334 µM | most active |  |
| ClC1=C(Cl)C2(Cl)C3C(Cl)C(Cl)CC3C1(Cl)C2(Cl)Cl (stereo not drawn) [Technical chlordane] |  |  | IC50 (hERG [3]; herg fluxor ii thallium influx): 28.5 µM |
| c1cc[c]([Sb]([c]2ccccc2)[c]2ccccc2)cc1 [Triphenylstibine] |  |  | IC50 (hERG [3]; herg fluxor ii thallium influx): 17.4 µM |

| SMILES | IC50 (hERG [1]) | activity outcome for hERG inhibition in the assay (hERG [2]; [4]) | further results |
| --- | --- | --- | --- |
| C/C=C/C(=O)Oc1ccccc1[N+](=O)[O-] [Dinocap] | 20.3 µM | inhibitory activity |  |
| CC1(C)CNC(=NN=C(/C=C/c2ccc(C(F)(F)F)cc2)/C=C/c2ccc(C(F)(F)F)cc2)NC1 [hydramethylnon] | 0.436 µM | most active |  |
| CCCCCCCCCCn1cc[n+](CCCCCCCCCC)c1C.[Cl-] [3-Didecyl-2-methylimidazolium chloride] |  | most active |  |
| CO.COc1cc(Nc2c(C#N)cnc3cc(OCCCN4CCN(C)CC4)c(OC)cc23)c(Cl)cc1Cl [Bosutinib methanoate] |  | showing activity against hERG |  |
| O=c1[nH]c2ccccc2n1C1CCN(CCCC(c2ccc(F)cc2)c2ccc(F)cc2)CC1 [Pimozide] |  |  | activity outcome for hERG inhibition in the assay (hERG [2]): most active |
| CC(=O)[O-].CC(=O)[O-].[Hg+2] [Mercury(II) acetate] |  |  | IC50 (hERG [3]; herg fluxor ii thallium influx): 6.16 µM |
| Clc1ccc(C(c2ccccc2Cl)C(Cl)(Cl)Cl)cc1 (stereo not drawn) [o p’-DDT] |  | inhibitory activity |  |
| CCCCCCCC[N+](C)(CCCCCCCC)CCCCCCCC.O=S(=O)([O-])C(F)(F)F [Methyltrioctylammonium trifluoromethanesulfonate] | 0.109 µM |  | Aff (affinity classification) (hERG [2]): 1; activity outcome for hERG inhibition in the assay (hERG [2]): most active |
| O=c1[nH]cc(F)c(=O)[nH]1 [5-fluorouracil] |  | inactive |  |
| C=C1C(CCl)(CCl)C2(Cl)C(Cl)C(Cl)C1(Cl)C2(Cl)Cl (stereo not drawn) [Toxaphene] |  |  | IC50 (hERG [3]; fluxor ii thallium influx herg): 35.6 µM |
| CC(C)(C)c1ccc(CSc2cnn(C(C)(C)C)c(=O)c2Cl)cc1 [Pyridaben] | 18.8 µM | inhibitory activity |  |
| CCCCCCCCCCCC[N+](C)(C)Cc1ccccc1 [Benzyldimethyldodecylammonium chloride] |  |  | IC50 (hERG [3]; herg fluxor ii thallium influx): 1.21 µM |
| CC1(C)C2(Cl)C(Cl)C(Cl)C(Cl)(C(Cl)Cl)C1(Cl)C2Cl (stereo not drawn) [Strobane] |  |  | IC50 (hERG [3]; herg fluxor ii thallium influx): 41.2 µM |
| O=C(CCCN1CCC(O)(c2cccc(C(F)(F)F)c2)CC1)c1ccc(F)cc1 [Trifluperidol] |  | most active |  |
| CCNc1ccc(C(=C2C=CC(=[N+](CC)CC)C=C2)c2ccc(N(CC)CC)cc2)c2ccccc12.[Cl-] [basic blue 7] | 0.526 µM | most active |  |
| O=c1[nH]c2ccccc2n1CCCN1CCC(n2c(=O)[nH]c3cc(Cl)ccc32)CC1 [Domperidone] |  | showing activity against hERG |  |
